{"source": "paper PMC11676896", "about": "“Protective Action of Cannabidiol on Tiamulin Toxicity in Humans—In Vitro Study” (International Journal of Molecular Sciences, 2024)", "key": {"HepG2 cells [1]": {"system": "HepG2 cells", "assay": "NRU assay (lysosomal activity)", "assay_type": "cell-based", "details": "Homo sapiens, HepG2, 72 h, read-out: inhibited concentration (IC50), NRU", "description": "The cytotoxic potential of the veterinary drug and its mixtures with cannabidiol at two non-toxic concentrations: 1.56 and 3.15 µg/mL, on the human SH-SY5Y, HepG2 and HEK 293 cell lines was assessed by decreased viability of the cells within five biochemical endpoints: mitochondrial activity and lysosomal activity (MTT assays, reducing the tetrazolium dye MTT 3-(4,5-dimethylthiazol-2-yl)-2,5-diphenyltetrazolium bromide and neutral red uptake (NRU) assays), total protein content (TPC assay), cellular membrane integrity (leakage lactate dehydrogenase (LDH) assay) and DNA synthesis (the bromodeoxyuridine/5-bromo-2′-deoxyuridine incorporation into the DNA cells (BrdU) assay) after 72 h exposition. […]\nThe human neuroblastoma (SH-SY5H), hepatoma (HepG2) and kidney cells (HEK 293) cells were purchased from the American Type Culture Collection: ATCCCRL-2266,ATCC HB-8065 and ATCC CRL-1573, respectively. […] Cytotoxicity was assessed after 72 h of exposure of the cells to the compounds. […]\nThis method is based on staining living cells with neutral red, which readily diffuses through the plasma membrane and accumulates in lysosomes. […] After 10 min of shaking, the absorbance of the dissolved NR was measured using a Synergy 2 Multi-Mode Microplate Reader (BioTek® Instruments Inc., Winooski, VT, USA) at 540 nm using a blank as a reference. […]"}, "HEK-293 cells": {"system": "HEK-293 cells", "assay": "DCFH-DA assay of reactive oxygen species (ROS)", "assay_type": "cell-based, human", "details": "HEK-293, lowest concentration of tiamulin, 72 h", "description": "(§1) The human neuroblastoma (SH-SY5H), hepatoma (HepG2) and kidney cells (HEK 293) cells were purchased from the American Type Culture Collection: ATCCCRL-2266,ATCC HB-8065 and ATCC CRL-1573, respectively. These cells were cultured in Minimum Essential Medium Eagle (MEME) (ATCC). The media were supplemented with 10% FBS, 1% L-glutamine (and 1% antibiotic solution (P4333 Sigma). The cells were maintained in 75 cm^2 cell culture flasks (NUNC) in a humidified incubator at 37 °C in an atmosphere of 5% CO2. The medium was refreshed every two or three days, and the cells were subcultured by 0.25% trypsin–0.02% EDTA after reaching 70–80% confluence. Single cell suspensions were prepared and adjusted to a density of 2 × 10^5 cell/mL^−1 (SH-SY5H), 1 × 10^5 cell/mL^−1 (HepG2) and 1 × 10^5 cell/mL^−1 (HEK-293). The cell suspension was transferred to 96-well plates (100 µL/well) or Lab-Tek chamber slides (8 wells) (Nunc) for staining and incubated for 24 h before the exposure to the studied compounds. Stock solutions of tiamulin fumarate and cannabidiol were prepared in DMSO and diluted with culture medium to obtain a concentration range from 1.56 to 200 µg/mL and 1.56 or […], respectively. The selection of tiamulin concentrations was based on data from the literature and pilot studies. The final concentration of DMSO was 0.1% in the medium. The same final concentrations of the solvent and the 1% Trition-X 100 solution were used as the negative and positive controls, respectively. A total of 500 µM hydrogen peroxide (H2O2) in was used as the positive control in the DCFH assay. […] As a negative control, cultured cells were grown in the absence of studied compounds. […] Cytotoxicity was assessed after 72 h of exposure of the cells to the compounds. […]\n(§2) Intracellular levels of ROS were evaluated using the redox-sensitive fluorescent dye DCFH-DA [62]. […] After 72 h of incubation, the fluorescence of 2′,7′-dichlorofluorescein (DCF) was measured. Fluorescence was determined at 485/530 nm using a fluorescence microplate reader (BioTek® Instruments Inc., Winooski, VT, USA)."}, "HepG2 cells [2]": {"system": "HepG2 cells", "assay": "DCFH-DA assay of reactive oxygen species (ROS)", "assay_type": "cell-based, human", "details": "HepG2, lowest concentration of tiamulin, 72 h", "description": "as §1, §2"}, "SH-SY5Y cells": {"system": "SH-SY5Y cells", "assay": "DCFH-DA assay of reactive oxygen species (ROS)", "assay_type": "cell-based, human", "details": "lowest concentration of tiamulin, 72 h", "description": "as §1, §2"}, "[3]": {"system": "SH-SY5Y, HepG2 and HEK-293 cells", "assay": "Cellular morphology, May-Grünwald-Giemsa staining", "assay_type": "cell-based, human", "details": "May-Grunwald staining", "description": "This method was used to illustrate the changes that occurred in cell morphology under the influence of the tested compounds. The staining was performed on 24-well plates. The cells at a density of 1 × 10^5 cells/mL were used. After 24 h of incubation with the examined drugs or without them (control), the culture media was removed and the cells were stained with 1 mL of May–Grünwald dye for 3 min at room temperature. Then, 1 mL of deionized water was added to each plate. After 3 min of incubation at room temperature, the liquid was removed. All the plates were rinsed with deionized water, and then the cells were stained with Giemsa dye (dilution 1:20) for 30 min at room temperature. After this time, the dye was removed and the wells were rinsed with 1 mL of deionized water and then allowed to dry. The images were taken using a light microscope (Zeiss, Obercochem, Germany)."}, "HepG2 and HEK-293 cells": {"system": "HepG2 and HEK-293 cells", "design": "method as in PMID 39241564, PMID 37709940", "details": "10 h of exposure, cited from earlier work"}, "MDA-MB-231": {"system": "MDA-MB-231", "design": "method as in PMID 28399915", "details": "MDA-MB-231, dose 6.25–100 µg/mL, treatment period 12–48 h; cited from earlier work"}}, "note": "Where “and” joins values, the source holds several entries; their conditions need not be identical. Equal values may be shown once. Where a name gives a salt, the structure may show the parent alone. Read-outs that look alike come from different tables or passages of the source."}
{"smiles": "C=C[C@]1(C)C[C@@H](OC(=O)CSCCN(CC)CC)[C@]2(C)[C@H](C)CC[C@]3(CCC(=O)[C@H]32)[C@@H](C)[C@@H]1O", "note": "[T, tiamulin fumarate]", "values": [{"measurement": "IC50", "setting": "HepG2 cells [1]", "result": "34.7 ± 1", "unit": "µg/mL"}, {"measurement": "increase in fluorescence intensity of the probes (ROS)", "setting": "HEK-293 cells", "result": 91, "unit": "%"}, {"measurement": "increase in fluorescence intensity of the probes (ROS)", "setting": "HepG2 cells [2]", "result": 44, "unit": "%"}, {"measurement": "increase in fluorescence intensity of the probes (ROS)", "setting": "SH-SY5Y cells", "result": 66, "unit": "%"}, {"measurement": "changes in cell morphology", "setting": "[3]", "result": "detachment from the adhesion surface"}, {"measurement": "concentrations with cytotoxic effects", "setting": "HepG2 and HEK-293 cells; converted from µM", "result": "49.4 µg/mL and 98.8 µg/mL"}, {"measurement": "concentrations with cytotoxic effects", "setting": "HepG2 and HEK-293 cells", "result": "100 µM and 200 µM"}, {"measurement": "cell viability", "setting": "MDA-MB-231", "result": "cell viability decreased with increasing dose"}]}
